The supplement of paper PMC10307832

Tests used:
Test in all cases: relative viability (nuclei count vs DMSO), 5 days (fraction); higher = more cells survive
AZ505 + Phenformin = compound: C1CCC(CC1)N(CCNCCC2=C3C(=C(C=C2)O)NC(=O)CO3)C(=O)CCNCCC4=CC(=C(C=C4)Cl)Cl [AZ505] + N=C(N)NC(=N)NCCc1ccccc1 [Phenformin] (partner 250 µM)
Outline: (§1)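 The day after seeding in 1536-well plates, lung cancer cell lines were treated by pin tool with a single drug, or with a fixed anchor-drug dose together with five library-drug doses (not always all listed) in √10 steps. After 5 days, a combined fix-and-stain solution (final 0.05% Triton X-100, 1% formaldehyde, 1 ug/ml Hoechst) was added. Nuclei counted on 4× images gave relative viability as treated counts over vehicle counts, reported as the median of duplicate plates.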

Dactolisib + Vorinostat = compound: Cn1c(=O)n(-c2ccc(C(C)(C)C#N)cc2)c2c3cc(-c4cnc5ccccc5c4)ccc3ncc21 [Dactolisib] + O=C(CCCCCCC(=O)Nc1ccccc1)NO [Vorinostat] (partner 1 µM)
Outline: as §1

AZ505 + Alpelisib = compound: C1CCC(CC1)N(CCNCCC2=C3C(=C(C=C2)O)NC(=O)CO3)C(=O)CCNCCC4=CC(=C(C=C4)Cl)Cl [AZ505] + Cc1nc(NC(=O)N2CCC[C@H]2C(N)=O)sc1-c1ccnc(C(C)(C)C(F)(F)F)c1 [Alpelisib] (partner 2 µM)
Outline: as §1

AZ505 + Trametinib = compound: C1CCC(CC1)N(CCNCCC2=C3C(=C(C=C2)O)NC(=O)CO3)C(=O)CCNCCC4=CC(=C(C=C4)Cl)Cl [AZ505] + CC(=O)Nc1cccc(-n2c(=O)n(C3CC3)c(=O)c3c(Nc4ccc(I)cc4F)n(C)c(=O)c(C)c32)c1 [Trametinib] (partner 0.02 µM)
Outline: as §1

Cell Line | relative viability (AZ505 + Phenformin; first compound 0.08 µM) | relative viability (AZ505 + Phenformin; first compound 0.253 µM) | relative viability (AZ505 + Phenformin; first compound 0.8 µM) | relative viability (AZ505 + Phenformin; first compound 2.53 µM) | relative viability (AZ505 + Phenformin; first compound 8 µM) | relative viability (Dactolisib + Vorinostat; first compound 0.002 µM) | relative viability (Dactolisib + Vorinostat; first compound 0.006325 µM) | relative viability (Dactolisib + Vorinostat; first compound 0.02 µM) | relative viability (Dactolisib + Vorinostat; first compound 0.06325 µM) | relative viability (Dactolisib + Vorinostat; first compound 0.2 µM) | relative viability (AZ505 + Alpelisib; first compound 0.08 µM) | relative viability (AZ505 + Alpelisib; first compound 0.253 µM) | relative viability (AZ505 + Alpelisib; first compound 0.8 µM) | relative viability (AZ505 + Alpelisib; first compound 2.53 µM) | relative viability (AZ505 + Alpelisib; first compound 8 µM) | relative viability (AZ505 + Trametinib; first compound 0.08 µM) | relative viability (AZ505 + Trametinib; first compound 0.253 µM) | relative viability (AZ505 + Trametinib; first compound 0.8 µM) | relative viability (AZ505 + Trametinib; first compound 2.53 µM) | relative viability (AZ505 + Trametinib; first compound 8 µM)
NCI-H2087 | 0.389 | 0.35 | 0.395 | 0.396 | 0.471 | 0.731 | 0.458 | 0.501 | 0.176 | 0.339 | 0.863 | 1.03 | 1.01 | 1.14 | 0.997 | 0.171 | 0.257 | 0.221 | 0.281 | 0.219
NCI-H2126 | 0.466 | 0.537 | 0.491 | 0.526 | 0.538 | 0.856 | 0.763 | 0.594 | 0.427 | 0.426 | 0.729 | 0.781 | 0.771 | 0.746 | 0.822 | 0.523 | 0.592 | 0.523 | 0.629 | 0.574
NCI-H2170 | 0.396 | 0.42 | 0.397 | 0.405 | 0.421 | 0.821 | 0.815 | 0.754 | 0.613 | 0.259 | 0.804 | 0.914 | 0.719 | 0.846 | 0.918 | 0.84 | 0.931 | 0.883 | 0.893 | 0.942
NCI-H2228 | 0.291 | 0.222 | 0.279 | 0.392 | 0.224 | 0.652 | 0.682 | 0.429 | 0.327 | 0.164 | 0.627 | 0.554 | 0.677 | 0.69 | 0.748 | 0.311 | 0.374 | 0.441 | 0.49 | 0.429
NCI-H2347 | 0.271 | – | – | – | 0.331 | 0.557 | 0.55 | 0.585 | 0.364 | 0.378 | 0.558 | 0.591 | 0.643 | 0.522 | 0.714 | 0.332 | 0.258 | 0.263 | 0.247 | 0.254
NCI-H2405 | 0.278 | 0.214 | 0.31 | 0.218 | 0.263 | 1.09 | 1.02 | 0.839 | 0.391 | 0.277 | 0.4 | 0.426 | 0.503 | 0.384 | 0.508 | 0.487 | – | 0.615 | 0.586 | 0.603
NCI-H3122 | 0.369 | 0.353 | 0.37 | 0.357 | 0.414 | 1.03 | 0.854 | 1.09 | 1.04 | 0.671 | 0.79 | 0.677 | 0.772 | 0.721 | 0.836 | 0.211 | 0.258 | 0.215 | 0.27 | 0.267
PC-3 [JPC-3] | 0.423 | 0.446 | 0.433 | 0.484 | 0.422 | 0.968 | 0.843 | 0.748 | 0.782 | 0.426 | 0.914 | 0.961 | 0.941 | 0.919 | 0.979 | 0.596 | – | 0.694 | 0.704 | 0.693
PC-14 | 0.519 | 0.328 | 0.573 | 0.482 | 0.668 | 0.767 | 0.681 | 0.417 | 0.155 | 0.163 | 0.81 | 0.964 | 0.925 | 0.906 | 0.961 | 0.711 | 0.884 | 0.76 | 0.747 | 0.786
RERF-LC-KJ | 0.393 | 0.436 | 0.394 | 0.348 | 0.358 | 0.683 | 0.699 | 0.707 | 0.452 | 0.542 | 0.775 | 0.767 | 0.741 | 0.901 | 0.863 | 0.863 | 0.958 | 0.797 | 0.878 | 0.71
SK-LU-1 | 0.353 | 0.345 | 0.33 | 0.394 | 0.379 | 0.766 | 0.697 | 0.671 | 0.448 | 0.321 | 0.499 | 0.846 | 0.537 | 0.69 | 0.741 | 0.366 | 0.377 | 0.401 | 0.383 | 0.407
SK-MES-1 | 0.485 | 0.618 | 0.643 | 0.67 | 0.601 | 0.954 | 1 | 0.998 | 0.504 | 0.475 | 0.881 | 0.954 | 0.922 | 0.873 | 0.964 | 0.513 | 0.531 | 0.532 | 0.508 | 0.584
SW 1573 | 0.36 | 0.402 | 0.333 | 0.341 | 0.373 | 0.571 | 0.588 | 0.627 | 0.243 | 0.25 | 0.658 | 0.714 | 0.661 | 0.82 | 0.858 | 0.536 | 0.657 | 0.515 | 0.474 | 0.543
